# Test results reported in patent US20050182128A1, “Use of anethole dithiolethione in lung cancer chemoprevention” (priority 2002, published 2005).
# Tests used:
# bronchial dysplasia = assay: Phase IIb trial: nuclear morphometry index (MI) of bronchial biopsies; format: in vivo, human
# Excerpt: The primary outcome of the study was changes in the histopathology grade of the bronchial biopsies before and after six months of intervention. The secondary endpoint was changes in the nuclear morphometry index of the bronchial biopsies.
# The method of quantitative nuclear morphometry had been described in detail previously (Lam et al., 1998; Doudkine et al., 1995; Garner et al., 1994). […] Morphometric measurements provide a more objective and reproducible means for the grading of bronchial biopsies than subjective assessment does. The device used to make these high-resolution quantitative morphometric measurements was a Cyto-Savant™ system (Lam et al., 1998; Doudkine et al., 1995; Garner et al., 1994). The images were interactively collected by an experienced cytotechnologist under the direction of a pathologist (JCL). The images were collected using a 20x objective with a numerical aperture of 0.75. Analysis of the nuclei in each tissue consisted of five steps 1) focusing the field of view, 2) automatically segmenting the nuclei in the field, 3) interactively correcting segmentation errors, 4) selecting and classifying the cell nuclei into the categories of basal, intermediate or superficial cells depending or their location within the biopsy where possible, and 5) automatically collecting individually focused images of each selected cell. Additionally, approximately 30 leukocytes were collected to normalize the images for sample to sample variations in staining intensity. On the average, greater than 100 cell nuclei were collected in this fashion for each of the biopsies. Using bulk nuclear features such as the total area and the total amount of light absorbed (which corresponds to the amount of DNA), shape features and descriptions of the distribution of stained DNA (texture features) (Doudkine et al., 1995), a scale was defined with normal nuclei defining one end and cancer-like nuclei defining the other. From the proportion of nuclei along this scale, a Morphometry Index (MI) was derived for each biopsy (Lam et al., 1998).
# For quantitative nuclear morphometry, the median MI for histologically normal biopsies was 1.25. The inter-observer variation of measuring the MI was such that a change in MI greater than 0.11 (>2SD) was taken to be a significant change. For the lesion specific analysis, CR was defined as regression of a lesion with a MI of >1.36 to ≦1.36. PD was defined as increase in the MI from ≦1.36 to >1.36. On a participant by participant basis, CR was defined as regression of all sites with MI>1.36 to ≦1.36. PD was defined as progression of any site similar to that defined under the site by site analysis or appearance of new lesions with a MI of >1.36.
# Descriptive statistics were used to summarize subject characteristics, and pathologic evaluations of the bronchial biopsy examinations. Comparison between treatment arms was done with the Mann-Whitney test for continuous variables such as age, smoking intensity (pack-years) and MI. Pearson's χ^2 test with continuity correction was used to compare categorical variables such as gender, smoking status (current versus former smokers) and response rates (progression and regression) in the two arms. Fisher's exact test was applied to the lower partial response and stable disease rates. All P values are two-sided. A two-sided P value of less than 0.05 was considered statistically significant.
# [1] = tested on: intracellular glutathione; details: animals pretreated with various toxins and normal animals; cited from earlier work
# [2] = 25 mg three times daily; cited from earlier work
smiles,measurement,setting,value
"COc1ccc(-c2cc(=S)ss2)cc1 [ADT, 5-(p-methoxyphenyl)-1,2-dithiole-3-thione]","PR rate, subject specific analysis, nuclear morphometry",bronchial dysplasia; 6 months,3%
same,Biopsies with MI >1.36 at 6 months,"bronchial dysplasia; baseline MI >1.36, of 38",9
same,Biopsies with MI ≦1.36 at 6 months,"bronchial dysplasia; baseline MI >1.36, of 38",29
same,"CR rate, lesion specific analysis, nuclear morphometry","bronchial dysplasia; baseline MI >1.36 to ≦1.36 at 6 months, placebo 63%, P=0.37",76%
same,Biopsies with MI >1.36 at 6 months,"bronchial dysplasia; baseline MI ≦1.36, of 112",27
same,Biopsies with MI ≦1.36 at 6 months,"bronchial dysplasia; baseline MI ≦1.36, of 112",85
same,"PD rate, lesion specific analysis, nuclear morphometry","bronchial dysplasia; baseline MI ≦1.36 to >1.36 at 6 months, placebo 33%, P=0.22",24%
same,"CR, number of subjects, nuclear morphometry",bronchial dysplasia; of 29,13
same,"PD, number of subjects, nuclear morphometry",bronchial dysplasia; of 29,12
same,"PR, number of subjects, nuclear morphometry",bronchial dysplasia; of 29,1
same,"PD rate, person specific analysis, nuclear morphometry","bronchial dysplasia; participants with MI>1.36 pre-treatment, placebo 60%, P=0.28",41%
same,"PD rate lower than placebo, nuclear morphometry","bronchial dysplasia; person specific, 41% versus 60%",19%
same,"CR rate higher than placebo, nuclear morphometry","bronchial dysplasia; person specific, 45% versus 24%",21%
same,"CR rate, person specific analysis, nuclear morphometry","bronchial dysplasia; placebo 24%, p=0.19",45%
same,Biopsies with MI >1.36 at 6 months,"bronchial dysplasia; total, of 150",36
same,Biopsies with MI ≦1.36 at 6 months,"bronchial dysplasia; total, of 150",114
same,Intracellular glutathione,[1],increase of intracellular glutathione
same,Safety and efficacy at therapeutic dose,[2],safe and effective
